Legend:
Format in all cases: functional
Typhlodromus pyri [1] = assay: Miticidal activity against compound treated Phaseolus vulgaris leaf-fed female Typhlodromus pyri Scheuten 5 assessed as mortality at 855 mg/l sprayed on leaf disks measured after 3 days; settings: Scheuten 5, foliar, 72 h
Typhlodromus pyri [2] = assay: Miticidal activity against compound treated Phaseolus vulgaris leaf-fed female Typhlodromus pyri Scheuten 10 assessed as mortality at 855 mg/l sprayed on leaf disks measured after 3 days; settings: Scheuten 10, foliar, 72 h
Typhlodromus pyri [3] = assay: Miticidal activity against compound treated Phaseolus vulgaris leaf-fed female Typhlodromus pyri Scheuten 7 assessed as mortality at 855 mg/l sprayed on leaf disks measured after 3 days; settings: Scheuten 7, foliar, 72 h
Typhlodromus pyri [4] = assay: Miticidal activity against compound treated Phaseolus vulgaris leaf-fed female Typhlodromus pyri Scheuten 6 assessed as mortality at 855 mg/l sprayed on leaf disks measured after 3 days; settings: Scheuten 6, foliar, 72 h
Typhlodromus pyri [5] = assay: Miticidal activity against compound treated Phaseolus vulgaris leaf-fed female Typhlodromus pyri Scheuten 4 assessed as mortality at 855 mg/l sprayed on leaf disks measured after 3 days; settings: Scheuten 4, foliar, 72 h
Typhlodromus pyri [6] = assay: Miticidal activity against compound treated Phaseolus vulgaris leaf-fed female Typhlodromus pyri Scheuten 8 assessed as mortality at 855 mg/l sprayed on leaf disks measured after 3 days; settings: Scheuten 8, foliar, 72 h
Typhlodromus pyri [7] = assay: Miticidal activity against compound treated Phaseolus vulgaris leaf-fed female Typhlodromus pyri Scheuten 2 assessed as mortality at 855 mg/l sprayed on leaf disks measured after 3 days; settings: Scheuten 2, foliar, 72 h
Typhlodromus pyri [8] = assay: Miticidal activity against compound treated Phaseolus vulgaris leaf-fed female Typhlodromus pyri Scheuten 3 assessed as mortality at 855 mg/l sprayed on leaf disks measured after 3 days; settings: Scheuten 3, foliar, 72 h
Typhlodromus pyri [9] = assay: Miticidal activity against compound treated Phaseolus vulgaris leaf-fed female Typhlodromus pyri Scheuten 9 assessed as mortality at 855 mg/l sprayed on leaf disks measured after 3 days; settings: Scheuten 9, foliar, 72 h
Typhlodromus pyri [10] = assay: Miticidal activity against compound treated Phaseolus vulgaris leaf-fed female Typhlodromus pyri Scheuten 11 assessed as mortality at 855 mg/l sprayed on leaf disks measured after 3 days; settings: Scheuten 11, foliar, 72 h
Typhlodromus pyri [11] = assay: Miticidal activity against compound treated Phaseolus vulgaris leaf-fed female Typhlodromus pyri Scheuten 13 assessed as mortality at 855 mg/l sprayed on leaf disks measured after 3 days; settings: Scheuten 13, foliar, 72 h
Typhlodromus pyri [12] = assay: Miticidal activity against compound treated Phaseolus vulgaris leaf-fed female Typhlodromus pyri Scheuten 1 assessed as mortality at 855 mg/l sprayed on leaf disks measured after 3 days; settings: Scheuten 1, foliar, 72 h
Typhlodromus pyri [13] = assay: Miticidal activity against compound treated Phaseolus vulgaris leaf-fed female Typhlodromus pyri Scheuten 12 assessed as mortality at 855 mg/l sprayed on leaf disks measured after 3 days; settings: Scheuten 12, foliar, 72 h
Typhlodromus pyri [14] = assay: Miticidal activity against compound treated Phaseolus vulgaris leaf-fed female Typhlodromus pyri Scheuten 8 assessed as mortality at 17.5 mg/l sprayed on leaf disks measured after 3 days; settings: Scheuten 8, foliar, 72 h
Typhlodromus pyri [15] = assay: Miticidal activity against compound treated Phaseolus vulgaris leaf-fed female Typhlodromus pyri Scheuten 3 assessed as mortality at 17.5 mg/l sprayed on leaf disks measured after 3 days; settings: Scheuten 3, foliar, 72 h
Typhlodromus pyri [16] = assay: Miticidal activity against compound treated Phaseolus vulgaris leaf-fed female Typhlodromus pyri Scheuten 1 assessed as mortality at 17.5 mg/l sprayed on leaf disks measured after 3 days; settings: Scheuten 1, foliar, 72 h
Typhlodromus pyri [17] = assay: Miticidal activity against compound treated Phaseolus vulgaris leaf-fed female Typhlodromus pyri Scheuten 4 assessed as mortality at 17.5 mg/l sprayed on leaf disks measured after 3 days; settings: Scheuten 4, foliar, 72 h
Typhlodromus pyri [18] = assay: Miticidal activity against compound treated Phaseolus vulgaris leaf-fed female Typhlodromus pyri Scheuten 12 assessed as mortality at 17.5 mg/l sprayed on leaf disks measured after 3 days; settings: Scheuten 12, foliar, 72 h
Typhlodromus pyri [19] = assay: Miticidal activity against compound treated Phaseolus vulgaris leaf-fed female Typhlodromus pyri Scheuten 6 assessed as mortality at 17.5 mg/l sprayed on leaf disks measured after 3 days; settings: Scheuten 6, foliar, 72 h
Typhlodromus pyri [20] = assay: Miticidal activity against compound treated Phaseolus vulgaris leaf-fed female Typhlodromus pyri Scheuten 10 assessed as mortality at 17.5 mg/l sprayed on leaf disks measured after 3 days; settings: Scheuten 10, foliar, 72 h
Typhlodromus pyri [21] = assay: Miticidal activity against compound treated Phaseolus vulgaris leaf-fed female Typhlodromus pyri Scheuten 5 assessed as mortality at 17.5 mg/l sprayed on leaf disks measured after 3 days; settings: Scheuten 5, foliar, 72 h
Typhlodromus pyri [22] = assay: Miticidal activity against compound treated Phaseolus vulgaris leaf-fed female Typhlodromus pyri Scheuten 13 assessed as mortality at 17.5 mg/l sprayed on leaf disks measured after 3 days; settings: Scheuten 13, foliar, 72 h
Typhlodromus pyri [23] = assay: Miticidal activity against compound treated Phaseolus vulgaris leaf-fed female Typhlodromus pyri Scheuten 2 assessed as mortality at 17.5 mg/l sprayed on leaf disks measured after 3 days; settings: Scheuten 2, foliar, 72 h
Typhlodromus pyri [24] = assay: Miticidal activity against compound treated Phaseolus vulgaris leaf-fed female Typhlodromus pyri Scheuten 11 assessed as mortality at 17.5 mg/l sprayed on leaf disks measured after 3 days; settings: Scheuten 11, foliar, 72 h
Typhlodromus pyri [25] = assay: Miticidal activity against compound treated Phaseolus vulgaris leaf-fed female Typhlodromus pyri Scheuten 7 assessed as mortality at 17.5 mg/l sprayed on leaf disks measured after 3 days; settings: Scheuten 7, foliar, 72 h
Typhlodromus pyri [26] = assay: Miticidal activity against compound treated Phaseolus vulgaris leaf-fed female Typhlodromus pyri Scheuten 9 assessed as mortality at 17.5 mg/l sprayed on leaf disks measured after 3 days; settings: Scheuten 9, foliar, 72 h

CCOP(=S)(OCC)Oc1nc(Cl)c(Cl)cc1Cl [CHLORPYRIFOS]
mortality at 855 µg/mL (Typhlodromus pyri [1]): 8.3% | mortality at 855 µg/mL (Typhlodromus pyri [2]): 55.5% | mortality at 855 µg/mL (Typhlodromus pyri [3]): 40.9% | mortality at 855 µg/mL (Typhlodromus pyri [4]): 7.6% | mortality at 855 µg/mL (Typhlodromus pyri [5]): 56.2% | mortality at 855 µg/mL (Typhlodromus pyri [6]): 25.9% | mortality at 855 µg/mL (Typhlodromus pyri [7]): 33.3% | mortality at 855 µg/mL (Typhlodromus pyri [8]): 23.6% | mortality at 855 µg/mL (Typhlodromus pyri [9]): 74% | mortality at 855 µg/mL (Typhlodromus pyri [10]): 10.4% | mortality at 855 µg/mL (Typhlodromus pyri [11]): 32.5% | mortality at 855 µg/mL (Typhlodromus pyri [12]): 41.1% | mortality at 855 µg/mL (Typhlodromus pyri [13]): 7.9%

CC1(C)[C@H](C(=O)O[C@H](C#N)c2cccc(Oc3ccccc3)c2)[C@@H]1C=C(Br)Br [DELTAMETHRIN]
mortality at 17.5 µg/mL (Typhlodromus pyri [14]): 31.2% | mortality at 17.5 µg/mL (Typhlodromus pyri [15]): 61.8% | mortality at 17.5 µg/mL (Typhlodromus pyri [16]): 90.2% | mortality at 17.5 µg/mL (Typhlodromus pyri [17]): 84.3% | mortality at 17.5 µg/mL (Typhlodromus pyri [18]): 20.6% | mortality at 17.5 µg/mL (Typhlodromus pyri [19]): 5.3% | mortality at 17.5 µg/mL (Typhlodromus pyri [20]): 100% | mortality at 17.5 µg/mL (Typhlodromus pyri [21]): 86.1% | mortality at 17.5 µg/mL (Typhlodromus pyri [22]): 75% | mortality at 17.5 µg/mL (Typhlodromus pyri [23]): 92% | mortality at 17.5 µg/mL (Typhlodromus pyri [24]): 62.9% | mortality at 17.5 µg/mL (Typhlodromus pyri [25]): 23.6% | mortality at 17.5 µg/mL (Typhlodromus pyri [26]): 74%
